Test results reported in ChEMBL document CHEMBL1131929, “New lead compounds for brassinosteroid biosynthesis inhibitors” (1999).

How the values were obtained:
Type in all cases: functional
Lepidium sativum [1] = assay: Inhibitory activity on cress growth at a concentration of 0.5 uM
Lepidium sativum [2] = assay: Inhibitory activity on cress growth at a concentration of 5 uM
Oryza sativa = assay: Compound was tested for its activity in rice stem elongation test at a concentration of 1 uM Stem length was measured after 7 days of transplantation
Lepidium sativum [3] = assay: Inhibitory activity on cress growth at a concentration of 0.1 uM
Lepidium sativum [4] = assay: Inhibitory activity on cress growth at a concentration of 0.05 uM
Lepidium sativum [5] = assay: Inhibitory activity on cress growth at a concentration of 1 uM

Row | SMILES | Hypocotyl length (Lepidium sativum [1]) [cm] | Hypocotyl length (Lepidium sativum [2]) [cm] | Rice stem length (Oryza sativa) [cm] | Hypocotyl length (Lepidium sativum [3]) [cm] | Hypocotyl length (Lepidium sativum [4]) [cm] | Hypocotyl length (Lepidium sativum [5]) [cm]
1 | CC(O)(c1ccccc1)C(Cc1ccc(Cl)cc1)n1cncn1 (centres undefined) | 1.25 | 0.5 | ~2.7 | ~2.25 | ~2 | 0.75
2 | COc1cccc(/C=C(\C(O)C(C)(C)C)n2cncn2)c1 (centres undefined) |  |  | 2.7 |  |  | 
3 | OC(c1ccccc1)C(Cc1ccc(Cl)cc1)n1cncn1 (centres undefined) |  |  | ~2.6 |  |  | 
4 | CC(C)(C)C(O)/C(=C\c1ccc(Cl)cc1Cl)n1cncn1 (centres undefined) |  |  | 1.2 |  |  | 
5 | CC(C)(C)C(O)/C(=C\c1ccc(Cl)cc1)n1cncn1 (centres undefined) | ~0.51 | 0.5 | 1.4 | ~0.52 | 1 | ~0.51
6 | CC(C)(C)C(O)C(CCc1ccccc1)n1cncn1 (centres undefined) |  |  | ~2 |  |  | 
7 | CCCCOc1ccc(/C=C(\C(O)C(C)(C)C)n2cncn2)cc1 (centres undefined) |  |  | 2.4 |  |  | 
8 | OC(/C(=C\c1ccc(Cl)cc1)n1cncn1)c1ccccc1 (centres undefined) | 1 |  | 2.7 | 1.75 | ~2 | ~0.75
9 | CC(C)(C)C(O)C(Cc1ccc(Cl)cc1)n1cncn1 (centres undefined) |  |  | 1 |  |  | 
10 | CC(C)(C)C(O)C(CCCOc1ccccc1)n1cncn1 (centres undefined) |  |  | 2.1 |  |  | 
